Assay [1] has as its system PPO inhibitor-resistant weeds. Briefly: plastic pot tests as Examples 1 to 72 and variants (Examples 73 to 3456).
Experimental: On the same day, compound X is applied to the surface of soil so that the application rate of the compound X is 10, 20, 40 or 80 g/ha and the spray volume is 200 L/ha. The plastic pot is then placed in a greenhouse, and at 7 days after the application, soybeans are seeded, and further at 14 days after seeding the soybeans, the effect on the weeds and crop injuries on the soybeans are investigated.
On the same day, compound X is applied to the surface of soil so that the application rate of the compound X is 10, 20, 40 or 80 g/ha and the spray volume is 200 L/ha. The soybeans are then cultivated in a greenhouse, and at 21 days after seeding, the effect on the weeds and crop injuries on the soybeans are investigated.
The soybeans are then cultivated in a greenhouse, and at 21 days after seeding, compound X is foliar-treated so that the application rate of the compound X is 10, 20, 40 or 80 g/ha and the spray liquid amount is 200 L/ha. Further, the soybeans are cultivated in the greenhouse, and at 14 days after the application of compound X, the effect on the weeds and crop injuries on the soybeans are investigated.
Assay [2] deals with waterhemp (Amaranthus tuberculatus=Amaranthus rudis=Amaranthus tamariscinus) having Gly210 deficiency in PPO2. The assay is classed as in vivo. The conditions noted are these: rating 0 to 100, sprayed at plant height 20 cm, 200 L/ha, 1% (w/v) Agri-Dex, evaluated after 14 days in greenhouse.
[3] abbreviates: applications as in Examples 1 to 72, compound X replaced, 10 to 80 g/ha.
Setting [4] is: as Examples 1 to 216, RoundupPowerMax 32 fluid ounce/acre and XtendiMax 1 pint/acre further added.

Results on four molecules are retold here after patent US20240049713A1, “METHOD FOR CONTROLLING HERBICIDE-RESISTANT WEEDS” (SUMITOMO CHEMICAL COMPANY, LIMITED, priority 2020, published 2024).

Like-named read-outs stand apart in the source and are kept apart here.

As for `COC(=O)COC(=O)C1(Oc2cc(-n3c(=O)cc(C(F)(F)F)n(C)c3=O)c(F)cc2Cl)CC1` [Compound Y], the “effect on the weeds” value in assay [1] (setting [3]) and in assay [1] (setting [4]) was “effective control effect” throughout.

On to `COC(=O)CCNC(=O)C(C)Sc1cc(-n2c(=O)cc(C(F)(F)F)n(C)c2=O)c(F)cc1Cl` (stereo not drawn) [Tiafenacil, tiafenacil, reference compound], for which the herbicidal effect in assay [2] (20 g/ha) came out at 50; in assay [2] (40 g/ha), 70.

As for `Cn1c(C(F)(F)F)cc(=O)n(-c2cc(OC3(C(=O)OCC(=O)O)CC3)c(Cl)cc2F)c1=O` [Compound Z], the “effect on the weeds” value in assay [1] (setting [3]) and in assay [1] (setting [4]) was “effective control effect” each time.

For `CCOC(=O)COC(=O)C1(Oc2cc(-n3c(=O)cc(C(F)(F)F)n(C)c3=O)c(F)cc2Cl)CC1` [Compound X], the herbicidal effect in assay [2] (20 g/ha) and in assay [2] (40 g/ha) was 99 throughout. In assay [1] (setting [4]), the “effect on the weeds” value is on record as “effective control effect”.
